In patent US10196364B2, “Pyrimidine carboxamides as sodium channel blockers” (Purdue Pharma L.P., priority 2013, dated 2019) one finds IC50 data, which are given here for 22 compounds.

By IC50 is commonly meant the concentration at which inhibition is half-maximal.

The target of this assay is human Nav1.7 (Homo sapiens, UniProt Q15858). Description: FLIPR sodium dye assay (CoroNa Green AM Na+ dye, primary fluorescence assay) in recombinant Nav1.7/HEK293 cells. It counts as cell-based. Particulars: Table 6; CoroNa Green AM Na+ dye primary fluorescence assay; read-out: Nav1.7 Activity (μM) FLIPR assay IC50.
human Nav1.7, sequence (Q15858 1-1977 isoform Q15858-3): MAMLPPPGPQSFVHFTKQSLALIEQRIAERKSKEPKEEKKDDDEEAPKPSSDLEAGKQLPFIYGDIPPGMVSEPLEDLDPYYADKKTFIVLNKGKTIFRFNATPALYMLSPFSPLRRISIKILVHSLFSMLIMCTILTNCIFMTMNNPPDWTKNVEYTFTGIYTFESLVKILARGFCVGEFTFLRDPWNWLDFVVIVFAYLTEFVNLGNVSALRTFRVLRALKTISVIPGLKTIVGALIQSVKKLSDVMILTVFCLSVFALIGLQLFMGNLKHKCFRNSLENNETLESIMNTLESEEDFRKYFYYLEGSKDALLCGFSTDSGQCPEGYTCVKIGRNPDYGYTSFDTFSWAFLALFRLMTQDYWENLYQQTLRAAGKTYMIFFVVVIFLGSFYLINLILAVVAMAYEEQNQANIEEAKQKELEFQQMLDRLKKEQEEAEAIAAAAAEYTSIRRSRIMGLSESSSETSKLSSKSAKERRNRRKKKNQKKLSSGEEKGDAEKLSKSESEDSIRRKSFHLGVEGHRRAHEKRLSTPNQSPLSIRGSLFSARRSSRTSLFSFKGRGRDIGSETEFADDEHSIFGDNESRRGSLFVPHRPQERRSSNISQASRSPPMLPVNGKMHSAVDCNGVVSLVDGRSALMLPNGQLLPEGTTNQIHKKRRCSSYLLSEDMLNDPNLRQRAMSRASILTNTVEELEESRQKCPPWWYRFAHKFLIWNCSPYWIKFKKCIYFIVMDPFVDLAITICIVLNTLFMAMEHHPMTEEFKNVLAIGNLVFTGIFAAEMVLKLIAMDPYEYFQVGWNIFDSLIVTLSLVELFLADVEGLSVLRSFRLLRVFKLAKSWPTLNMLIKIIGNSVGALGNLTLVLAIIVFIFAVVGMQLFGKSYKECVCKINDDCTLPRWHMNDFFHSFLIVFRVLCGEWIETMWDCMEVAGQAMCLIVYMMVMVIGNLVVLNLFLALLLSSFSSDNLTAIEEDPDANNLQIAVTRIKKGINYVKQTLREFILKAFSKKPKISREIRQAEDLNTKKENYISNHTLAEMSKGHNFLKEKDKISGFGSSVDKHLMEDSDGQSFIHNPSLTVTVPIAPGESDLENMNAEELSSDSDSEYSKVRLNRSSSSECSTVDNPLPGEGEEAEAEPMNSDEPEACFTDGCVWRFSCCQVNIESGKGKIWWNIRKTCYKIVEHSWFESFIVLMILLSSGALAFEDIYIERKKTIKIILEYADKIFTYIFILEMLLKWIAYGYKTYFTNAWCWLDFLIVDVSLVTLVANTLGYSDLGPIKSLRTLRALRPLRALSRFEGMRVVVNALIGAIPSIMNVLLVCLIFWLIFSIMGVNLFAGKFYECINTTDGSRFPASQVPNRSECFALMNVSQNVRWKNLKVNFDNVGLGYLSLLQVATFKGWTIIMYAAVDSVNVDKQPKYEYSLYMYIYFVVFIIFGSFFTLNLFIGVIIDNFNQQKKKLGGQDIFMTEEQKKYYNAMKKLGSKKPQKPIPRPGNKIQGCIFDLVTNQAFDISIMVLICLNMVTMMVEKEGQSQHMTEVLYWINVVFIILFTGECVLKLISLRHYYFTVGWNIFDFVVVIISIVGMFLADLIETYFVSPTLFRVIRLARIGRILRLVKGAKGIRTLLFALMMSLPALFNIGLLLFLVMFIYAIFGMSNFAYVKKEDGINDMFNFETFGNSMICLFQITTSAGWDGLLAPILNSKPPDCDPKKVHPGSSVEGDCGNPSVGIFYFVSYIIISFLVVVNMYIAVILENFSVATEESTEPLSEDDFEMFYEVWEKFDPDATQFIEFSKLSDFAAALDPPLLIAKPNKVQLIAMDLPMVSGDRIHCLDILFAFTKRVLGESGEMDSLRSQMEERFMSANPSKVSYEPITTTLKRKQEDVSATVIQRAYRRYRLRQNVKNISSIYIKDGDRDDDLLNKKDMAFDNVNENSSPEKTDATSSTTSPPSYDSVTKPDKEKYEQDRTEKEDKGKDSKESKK
In the case of `NC(=O)c1cc(N[C@H]2CCNC2=O)nc(C2=C[C@H]3CC[C@@H](C2)N3Cc2ccc(F)cc2)n1` [compound 138, 2-((1R,5S)-8-(4-fluorobenzyl)-8-azabicyclo[3.2.1]oct-2-en-3-yl)-6-(((S)-2-oxopyrrolidin-3-yl)amino)pyrimidine-4-carboxamide], the IC50 was > 20 µM. The figure for `C[C@H](Nc1cc(C(N)=O)nc(-c2ccc(Oc3ccc4c(c3)CCC4)cc2)n1)C(N)=O` [compound 109, (S)-6-((1-amino-1-oxopropan-2-yl)amino)-2-(4-((2,3-dihydro-1H-inden-5-yl)oxy)phenyl)pyrimidine-4-carboxamide] is 0.11 µM; for `NC(=O)c1cc(N[C@H]2CCNC2=O)nc(N2[C@@H]3CC[C@H]2C[C@@H](Oc2ccc(C(F)(F)F)cc2CN2CCCC2)C3)n1` [Cpd No. 191, 6-(((S)-2-oxopyrrolidin-3-yl)amino)-2-((1R,3S,5S)-3-(2-(pyrrolidin-1-ylmethyl)-4-(trifluoromethyl)phenoxy)-8-azabicyclo[3.2.1]octan-8-yl)pyrimidine-4-carboxamide] it is 1.97 µM; for `NC(=O)c1cc(N[C@H]2CCNC2=O)nc(-c2ccc(Oc3ccc(C(F)(F)F)cc3)cc2CN2CCOCC2)n1` [Cpd No. 200, (S)-2-(2-(morpholinomethyl)-4-(4-(trifluoromethyl)phenoxy)-phenyl)-6-((2-oxopyrrolidin-3-yl)amino)pyrimidine-4-carboxamide] it is 0.28 µM. Take `NC(=O)c1cc(N[C@H]2CCNC2=O)nc(N2C3CCC2CC(Oc2ccc(C(F)(F)F)cc2-c2ccncc2)C3)n1` (stereo partly drawn) [compound 154, 6-(((S)-2-oxopyrrolidin-3-yl)amino)-2-(3-(2-(pyridin-4-yl)-4-(trifluoromethyl)phenoxy)-8-azabicyclo[3.2.1]octan-8-yl)pyrimidine-4-carboxamide]: the IC50 is 0.13 µM. The result for `Cc1cnc(Oc2ccc(-c3nc(N[C@H]4CCNC4=O)cc(C(N)=O)n3)cc2)cn1` [Cpd No. 199, (S)-2-(4-((5-methylpyrazin-2-yl)oxy)phenyl)-6-((2-oxopyrrolidin-3-yl)amino)pyrimidine-4-carboxamide] reads 4.67 µM; that for `NC(=O)c1cc(N2CCNCC2C(N)=O)nc(-c2ccc(Oc3ccc(Cl)cc3F)cc2)n1` (stereo not shown) [compound 108, 6-(2-carbamoylpiperazin-1-yl)-2-(4-(4-chloro-2-fluorophenoxy)phenyl)pyrimnidine-4-carboxamide], 0.29 µM. In the case of `C[C@H](Nc1cc(C(N)=O)nc(N2CCC(Cc3ccccc3)CC2)n1)C(N)=O` [compound 107, (S)-6-((1-amino-1-oxopropan-2-yl)amino)-2-(4-benzylpiperidin-1-yl)pyrimidine-4-carboxamide], the IC50 turned out to be 1.95 µM. In the case of `CN1CCC(Nc2cc(C(N)=O)nc(-c3ccc(Oc4ccc(F)cc4)cc3)n2)C1=O` (stereo not shown) [compound 131, 2-(4-(4-fluorophenoxy)phenyl)-6-((1-methyl-2-oxopyrrolidin-3-yl)amino)pyrimnidine-4-carboxamide], the IC50 stood at 0.22 µM. The result for `O=C(NCCN1CCCC1)c1cc(N[C@H]2CCNC2=O)nc(-c2ccc(Oc3ccc(C(F)(F)F)cn3)cc2)n1` [compound 137, (S)-6-((2-oxopyrrolidin-3-yl)amino)-N-(2-(pyrrolidin-1-yl)ethyl)-2-(4-((5-(trifluoromethyl)pyridin-2-yl)oxy)phenyl)pyrimidine-4-carboxamide] reads 4.17 µM; that for `NC(=O)c1cc(N[C@H]2CCNC2=O)nc(-c2ccc(Oc3ccc(C(F)(F)F)c(C4=CCNCC4)c3)cc2)n1` [Cpd No. 205, (S)-6-((2-oxopyrrolidin-3-yl)amino)-2-(4-(3-(1,2,3,6-tetrahydropyridin-4-yl)-4-(trifluoromethyl)phenoxy)phenyl)pyrimidine-4-carboxamide], > 20 µM. With `CCN(CC)Cc1cc(C(F)(F)F)ccc1Oc1ccc(-c2nc(N[C@H]3CCNC3=O)cc(C(N)=O)n2)cc1` [Cpd No. 208, (S)-2-(4-(2-((diethylamino)-methyl)-4-(trifluoromethyl)-phenoxy)phenyl)-6-((2-oxopyrrolidin-3-yl)amino)pyrimidine-4-carboxamide], the IC50 turned out to be 0.75 µM.

In the case of `COc1cnc(Oc2ccc(-c3nc(N[C@H]4CCNC4=O)cc(C(N)=O)n3)cc2)cn1` [Cpd No. 197, (S)-2-(4-((5-methoxypyrazin-2-yl)oxy)phenyl)-6-((2-oxopyrrolidin-3-yl)amino)-pyrimidine-4-carboxamide], the IC50 worked out at 5.07 µM. The figure for `NC(=O)c1cc(N[C@H]2CCNC2=O)nc(-c2ccc(Oc3ccc(OC(F)(F)F)cc3)cc2)n1` [compound 116, (S)-6-((2-oxopyrrolidin-3-yl)amino)-2-(4-(4-(trifluoromethoxy)phenoxy)phenyl)pyrimidine-4-carboxamide] is 0.18 µM; for `NC(=O)c1cc(N[C@H]2CCNC2=O)nc(-c2ccc(Oc3ccc(C(F)(F)F)cc3)cc2)n1` [compound 114, (S)-6-((2-oxopyrrolidin-3-yl)amino)-2-(4-(4-(trifluoromethyl)phenoxy)phenyl)pyrimidine-4-carboxamide] it is 0.33 µM; for `NC(=O)c1cc(N[C@H]2CCNC2=O)nc(-c2ccc(Oc3ccc(F)cc3)cc2CN2CCCC2)n1` [compound 160, (S)-2-(4-(4-fluorophenoxy)-2-(pyrrolidin-1-ylmethyl)phenyl)-6-((2-oxopyrrolidin-3-yl)amino)pyrimidine-4-carboxamide] it is 6.67 µM. The figure for `NC(=O)c1cc(O[C@H]2CCNC2=O)nc(C2CCC(Oc3ccc(C(F)(F)F)cn3)CC2)n1` (stereo partly shown) [Cpd No. 213] is 0.69 µM. The figure for `NC(=O)c1cc(N[C@H]2CCNC2=O)nc(-c2ccc(Oc3ccc(F)cc3)cc2CN2CCOCC2)n1` [Cpd No. 187, (S)-2-(4-(4-fluorophenoxy)-2-(morpholinomethyl)phenyl)-6-((2-oxopyrrolidin-3-yl)amino)-pyrimidine-4-carboxamide] is 5.67 µM; for `NC(=O)c1cc(N[C@H]2CCNC2=O)nc(-c2ccc(CC3CCC(C(F)(F)F)CN3)cc2)n1` (stereo partly drawn) [Cpd No. 185, 6-(((S)-2-oxopyrrolidin-3-yl)amino)-2-(4-((5-(trifluoromethyl)piperidin-2-yl)methyl)phenyl)pyrimidine-4-carboxamide] it is 8.69 µM. For the compound `NC(=O)c1cc(N[C@H]2CCNC2=O)nc(N2CC(Oc3ccc(C(F)(F)F)cn3)C2)n1` [compound 150, (S)-6-((2-oxopyrrolidin-3-yl)amino)-2-(3-((5-(trifluoromethyl)pyridin-2-yl)oxy)azetidin-1-yl)pyrimidine-4-carboxamide], the IC50 was 0.95 µM. The figure for `NC(=O)c1cc(N[C@H]2CCNC2=O)nc(-c2ccc(Oc3ccc(F)cc3)cc2CN2CCCCC2)n1` [compound 158, (S)-2-(4-(4-fluorophenoxy)-2-(piperidin-1-ylmethyl)phenyl)-6-((2-oxopyrrolidin-3-yl)amino)pyrimidine-4-carboxamide] is 0.89 µM; for `NC(=O)c1cc(N[C@H]2CCNC2=O)nc(-c2ccc(Oc3ccc(C(F)(F)F)cc3CN3CCCC3)cc2)n1` [compound 169, (S)-6-((2-oxopyrrolidin-3-yl)amino)-2-(4-(2-(pyrrolidin-1-ylmethyl)-4-(trifluoromethyl)phenoxy)phenyl) pyrimidine-4-carboxamide] it is 0.74 µM.
